“And” between values parts separate entries of the source, which are not always exact repeats. Equal entries are not always repeated. Where two headings read alike, the source gives them in different places.
Columns and labels:
[1] = test system: human RBCs in whole blood; experiment: P50 of RBCs after in vitro incubation of human whole blood with effector (Hemox Analyzer); conditions: for P50 Increase % / P50 mm HG EFF:WB: human WB, EFF:WB 1:1.5, 30 mM; for lysis of the RBC: physiological or nearly physiological osmotic pressure, in vitro whole blood
[2] = test system: C57B1/6 mice; experiment: Tolerability and pharmacodynamics of SV184 and SV192 after iv injection; format: in vivo, mouse
Experimental: The tolerability and pharmacodynamics of the compounds SV184 and SV192 were tested in a small number of C57B1/6 mice. Mice receiving the whole volume of 200 μL of (30 mM) effector solution died immediately after injection or during injection (injection time 10-20 min). Eight mice receiving less than 200 μL of the compound solution survived. These mice were fast breathing and shaking, but recovered after 4 hours. […] Therefore, new derivatives were synthesized in our labs.

[3] = test system: C57B1/6 mice; experiment: as above; format: in vivo, mouse; remark: listed apart in the source
[4] = test system: mouse RBCs in whole blood; experiment: P50 of RBCs after in vitro incubation of mouse whole blood with effector (Hemox Analyzer); format: cell-based; conditions: for P50 Increase %: mouse WB
[5] = test system: human RBCs; conditions: large-volume continuous-flow electroporation; cited from earlier work
[6] = biological target: stripped hemoglobin (Homo sapiens, UniProt P68871); conditions: pH 7.4, cited from earlier work
[7] = test system: mice RBC; format: in vivo; conditions: ip 30, 45 and 60 mM; three hours after injection
Experimental: Three hours after injection, samples of blood were taken for P50 measurements. […] We have observed the shift of the P50 values in the blood from the injected animals over 3 days.
The P50 shift of RBC is similar to iv injections at concentrations of 30 and 45 mM.

[8] = biological target: T1, C57B1/6 mice free hemoglobin (Mus musculus, UniProt P02088); experiment: P50 of mouse free hemoglobin after incubation with KF effectors; format: biochemical; conditions: effector 2.5 mM : mouse hemoglobin 2.5 mM, 1:1; pH 7.0
T1 construct: P50 values of C57B1/6 mice free hemoglobin after incubation with; from tissue; host or cells: blood of C57Bl/6 mice (inferred; the preparation is not described)
Experimental: The pH of the compound solutions was adjusted to approximately 7.1 and effector solution (2.5 mM) and mouse hemoglobin (2.5 mM) were mixed at 1:1 ratio. The osmolarity was adjusted to 218-310 mOsM. Effectors and whole blood (WB) at 1:1.5 were incubated at 37° C. for 60 minutes.
They were tested for P50 right shift with mouse hemoglobin. The pH was adjusted to approximately 7.0 and effector solution (2.5 mM) and mouse hemoglobin (2.5 mM) were mixed at 1:1 ratio. P50 values were measured as before.

[9] = test system: C57B1/6 mice
[10] = EFF:WB 1:0.375, 224 mOsM, 30 mM
[11] = EFF:WB 1:0.375, 220 mOsM, 30 mM

Sequence of stripped hemoglobin (P69905 2-142 partner limits assumed): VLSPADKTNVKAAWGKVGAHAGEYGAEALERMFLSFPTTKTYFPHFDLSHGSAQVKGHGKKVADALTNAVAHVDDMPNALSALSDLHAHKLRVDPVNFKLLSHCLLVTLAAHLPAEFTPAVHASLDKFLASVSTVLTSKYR
Sequence of stripped hemoglobin (P68871 2-147 limits assumed): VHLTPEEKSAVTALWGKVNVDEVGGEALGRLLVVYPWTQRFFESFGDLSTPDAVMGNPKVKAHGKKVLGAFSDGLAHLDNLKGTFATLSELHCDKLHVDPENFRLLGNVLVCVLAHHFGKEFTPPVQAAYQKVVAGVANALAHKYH
T1 sequence (P01942 2-142 partner limits assumed): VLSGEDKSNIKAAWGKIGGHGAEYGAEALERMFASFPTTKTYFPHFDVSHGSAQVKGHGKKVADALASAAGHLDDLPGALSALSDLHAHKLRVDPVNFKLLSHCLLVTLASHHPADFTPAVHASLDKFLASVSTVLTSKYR
T1 sequence (P02088 2-147 limits assumed): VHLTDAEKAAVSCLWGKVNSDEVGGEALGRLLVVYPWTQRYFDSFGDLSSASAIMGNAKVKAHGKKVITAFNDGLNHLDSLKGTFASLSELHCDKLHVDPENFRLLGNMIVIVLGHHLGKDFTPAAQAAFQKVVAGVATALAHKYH

CC(C)CCCC(C)C1CCC2C3CC=C4CC(OC(=O)OP(=O)([O-])OC5C(OP(=O)([O-])[O-])C(OP(=O)([O-])[O-])C(OP(=O)([O-])[O-])C(OP(=O)([O-])[O-])C5OP(=O)([O-])[O-])CCC4(C)C3CCC12C.[Na+].[Na+].[Na+].[Na+].[Na+].[Na+].[Na+].[Na+].[Na+].[Na+].[Na+] (centres unmarked) [SV184, Inositol hexaphosphate-cholesteroloxycarbonyl, undecanyl sod ium salt]
P50 Increase % ([1]; 232 mOsM): 16% | P50 mm HG EFF:WB ([1]; 232 mOsM): 30.4 mm Hg | P50 mm HG EFF:WB ([1]; 310 mOsM): 30 mm Hg | P50 (FIG. 2, Curve B) ([2]; IV, WB mouse, 1 h, saline control P50=33.3): 41.0 | % increase of P50 (FIG. 2) ([2]; IV, WB mouse, 1 h, versus saline control): 23.12% | toxicity upon iv injection in mice ([2]; iv, 30 mM effector solution): high level of toxicity | shift of P50 in blood of surviving mice ([2]; less than 200 μL iv, blood taken 4 and 24 hours after injection): did not show a significant shift of P50 | Shift of P50 % ([3]; iv 150 μL of 30 nM): <5% | Number of mice died ([3]; iv 150 μL of 30 mM, 4 mice injected): 0 | Number of mice died ([3]; iv 200 μL of 30 mM, 1 mouse injected): 1 | P50 mm HG EFF:WB [4, 10]: 44.3 mm Hg | P50 mm HG EFF:WB ([4]; EFF:WB 1:1.5, 310 mOsM, 30 mM): 41.8 mm Hg | P50 Increase % [4, 10]: 15% | P50 Increase % ([4]; EFF:WB 1:1.5, 310 mOsM, 30 mM): 9%

CC(C)CCCC(C)C1CCC2C3CC=C4CC(OC(=O)OP(=O)(O)OC5C(OP(=O)(O)O)C(OP(=O)(O)O)C(OP(=O)(O)O)C(OP(=O)(O)O)C5OP(=O)(O)O)CCC4(C)C3CCC12C.CN(C)C1CCCCC1.CN(C)C1CCCCC1.CN(C)C1CCCCC1.CN(C)C1CCCCC1.CN(C)C1CCCCC1.CN(C)C1CCCCC1.CN(C)C1CCCCC1.CN(C)C1CCCCC1 (centres unmarked) [SV192ter]
P50 Increase % ([1]; 202 mOsM): 5% | P50 mm HG EFF:WB ([1]; 202 mOsM): 26.3 mm Hg | P50 Increase % ([1]; 258 mOsM): 2% | P50 mm HG EFF:WB ([1]; 258 mOsM): 25.6 mm Hg | P50 Increase % ([1]; 274 mOsM): 3% | P50 mm HG EFF:WB ([1]; 274 mOsM): 26.8 mm Hg | P50 Increase % ([1]; 303 mOsM): 4% | P50 mm HG EFF:WB ([1]; 303 mOsM): 26.2 mm Hg | lysis of the RBC [1]: no lysis | P50 mm HG EFF:WB [4, 11]: 46.4 mm Hg | P50 mm HG EFF:WB ([4]; EFF:WB 1:1.5, 264 mOsM, 15 mM): 42.2 mm Hg | P50 mm HG EFF:WB ([4]; EFF:WB 1:1.5, 276 mOsM, 30 mM): 43.5 mm Hg | P50 mm HG EFF:WB ([4]; EFF:WB 1:1.5, 283 mOsM, 5 mM): 43.1 mm Hg | P50 mm HG EFF:WB ([4]; EFF:WB 1:1.5, 314 mOsM, 60 mM): 43.1 mm Hg | P50 mm HG EFF:WB ([4]; EFF:WB 1:1.5, 320 mOsM, 30 mM): 41.4 mm Hg and 43.4 mm Hg and 41.9 mm Hg | P50 mm HG EFF:WB ([4]; EFF:WB 1:1.5, 320 mOsM, 50 mM): 42.6 mm Hg | P50 Increase % [4, 11]: 8% | P50 Increase % ([4]; EFF:WB 1:1.5, 264 mOsM, 15 mM): 2% | P50 Increase % ([4]; EFF:WB 1:1.5, 276 mOsM, 30 mM): 5% | P50 Increase % ([4]; EFF:WB 1:1.5, 283 mOsM, 5 mM): 7% | P50 Increase % ([4]; EFF:WB 1:1.5, 314 mOsM, 60 mM): 4% | P50 Increase % ([4]; EFF:WB 1:1.5, 320 mOsM, 30 mM): 8% and 13% and 9% | P50 Increase % ([4]; EFF:WB 1:1.5, 320 mOsM, 50 mM): 5%

CC(C)CCCC(C)C1CCC2C3CC=C4CC(OC(=O)OP(=O)(O)OC5C(OP(=O)(O)O)C(OP(=O)(O)O)C(OP(=O)(O)O)C(OP(=O)(O)O)C5OP(=O)(O)O)CCC4(C)C3CCC12C.CCCCN(CCCC)CCCC.CCCCN(CCCC)CCCC.CCCCN(CCCC)CCCC.CCCCN(CCCC)CCCC.CCCCN(CCCC)CCCC.CCCCN(CCCC)CCCC (centres unmarked) [Effector 2a, Inositol hexaphosphate-cholesteroloxycarbonyl, hexa tributyl-ammonium salt]
lysis of red blood cells (hemolysis) ([1]; tested on whole blood): triggered the lysis of the red blood cells

CC(C)CCCC(C)C1CCC2C3CC=C4CC(OC(=O)OP(=O)(O)OC5C(OP(=O)(O)O)C(OP(=O)(O)O)C(OP(=O)(O)O)C(OP(=O)(O)O)C5OP(=O)(O)O)CCC4(C)C3CCC12C.CN(C)C1CCCCC1.CN(C)C1CCCCC1.CN(C)C1CCCCC1.CN(C)C1CCCCC1.CN(C)C1CCCCC1.CN(C)C1CCCCC1.CN(C)C1CCCCC1.CN(C)C1CCCCC1 (centres unmarked) [SV192bis]
P50 Increase % ([1]; 220 mOsM): 6% | P50 mm HG EFF:WB ([1]; 220 mOsM): 26.6 mm Hg | P50 Increase % ([1]; 272 mOsM): 6% | P50 mm HG EFF:WB ([1]; 272 mOsM): 24 mm Hg | P50 Increase % ([1]; 306 mOsM): 13% | P50 mm HG EFF:WB ([1]; 306 mOsM): 28.3 mm Hg | lysis of the RBC [1]: no lysis

O=P(O)(O)O[C@H]1[C@H](OP(=O)(O)O)[C@@H](OP(=O)(O)O)[C@H](OP(=O)(O)O)[C@@H](OP(=O)(O)O)[C@H]1OP(=O)(O)O [IHP, inositol hexaphosphate]
P50 of human RBCs with encapsulated IHP [5]: approximately 50 torr | O2 half-saturation pressure P(O2)(½) of stripped hemoglobin ([6]; 25 C, without effector 4.3): 48.4 mm Hg | O2 half-saturation pressure P(O2)(½) of stripped hemoglobin ([6]; 37 C, without effector 9.3): 96.4 mm Hg

O=C(O)C(COP(=O)(O)O)OP(=O)(O)O (centres unmarked) [2,3-Diphosphoglycerate]
O2 half-saturation pressure P(O2)(½) of stripped hemoglobin ([6]; 25 C, without effector 4.3): 12.0 mm Hg | O2 half-saturation pressure P(O2)(½) of stripped hemoglobin ([6]; 37 C, without effector 9.3): 23.7 mm Hg

Inositol hexaphosphate-cholesteroloxycarbonyl, hepta N,N-dimethyl-cyclohexylammonium salt [KF16]
right shift of P50 after ip injection [7]: strong right shift of P50 | P50 Increase % [8]: 90% | P50 mm Hg EFF/fHb [8]: 52.17 mm Hg | P50 mm Hg EFF:WB ([4]; 1:1.5, 283 mOsM, pH 7.1, 30 mM, 60 min 37° C.): 36.14 mm Hg | P50 Increase % ([9]; iv 200 μL of 60 mM, 2 h after injection): > 10% | right shift in P50 value at lower concentrations ([9]; iv, concentrations lower than 60 mM): 6-9%

— US20040072801A1, “Sterols bearing pendant allosteric effectors of hemoglobin, and uses thereof” (priority 2002, published 2004)
